Read-outs that look alike come from different tables or passages of the source.
Legend:
[1] = tested on: normal human endocervical epithelial cells; assay: cells; type: cell-based; settings: 24 h, read-out: Endocervical cells IC50
Description: (§1) The potential cytotoxicity of aryl phosphate derivatives of bromo-methoxy ZDV in comparison to N-9, against normal human ectocervical and endocervical epithelial cells (Clonetics Corporation, San Diego, Calif.), was measured using MTT (3-[4,5-dimethylthiazol-2-yl]-2,5-diphenyl tetrazolium bromide) cell viability assays (Boehringer Mannheim Corp., Indianapolis, Ind.) [see, D'Cruz O J, et al., Mol Hum Reprod 1999; 5:421-432; D'Cruz O J, et al., Contraception 1999; 59 (in press); and Uckun F M, et al., Antimicrob Agents Chemther 1998; 42:383-388]. Briefly, exponentially growing ectocervical and endocervical epithelial cells were seeded into 96-well plate at a density of 2×10^5 cells/well and incubated for 24 h at 37° C. prior to drug exposure. On the day of treatment, culture medium was carefully aspirated from the wells and replaced with fresh medium containing drug concentrations ranging from 3.9 μM to 1000 μm. Triplicate wells were used for each treatment. The cells were incubated with the various compounds for 24 hours at 37° C. in a humidified 5% CO2 atmosphere. To each well, 10 μl of MTT (0.5 mg/ml final concentration) was added and the plates were incubated at 37° C. for 4 hours to allow MTT to form formazan crystals by reacting with metabolically active cells. The formazan crystals were solubilized overnight at 37° C. in a solution containing 10% SDS in 0.01 M HCl. The absorbance of each well was measured in a microtiter reader at 540 nm and a reference wavelength of 690 nm. To translate the OD540 values into the number of live cells in each well, the OD540 values were compared to those of standard OD540 versus cell number curves generated for each cell line. The percent cell survival was calculated using the formula: % survival=live cell number[test]/live cell number[control]×100. The results were expressed as IC50 values. The IC50 was defined as the concentration required for 50% reduction in cell survival. Two separate experiments were performed in triplicate to assess the potential cytotoxicity of spermicidal WHI-07 analogues against ectocervical and endocervical epithelial cells.

[2] = tested on: normal human ectocervical epithelial cells; assay: cells; type: cell-based; settings: 24 h, read-out: Ectocervical cells IC50
Description: as §1

sperm acrosome = assay: Sperm acrosome and membrane integrity by FITC-lectin staining, confocal, SEM and TEM (Example 4); type: cell-based, human; settings: for sperm head topography by scanning electron microscopy: 100 μM WHI compounds or 10 μM Cal A23187, 3 hours; for acrosome status by confocal microscopy (FITC-lectin) / acrosome-intact sperm: 100 μM; for acrosome status by confocal microscopy (FITC-lectin) / sperm head membranes by transmission electron microscopy / acrosome-intact sperm: 3 hours; for acrosome-intact sperm: method counts percentages of sperm with intact acrosome
Description: The percentages of sperm with an intact acrosome were evaluated by fluorescence microscopy (Olympus BX-60) following fixation and ethanol permeabilization of the sperm pellets and subsequent staining with fluorescein (FITC)-conjugated Pisum sativum lectin (Sigma). In positive control sperm, the acrosome reaction was induced by incubating (3 hours at 37° C.) the sperm suspension with 10 μm calcium ionophore (Cal) A23187 (Sigma). […] The percentage of sperm positive for PI were determined by flow cytometry using a FACS Vantage flow cytometer (Becton Dickinson and Co., Mountain View, Calif.). The sperm in the swim-up fractions were identified by their characteristic forward and 90° angle light scattering properties [O. J. D'Cruz and G. G. Haas, Jr. Fertil. Steril. 58, 633 (1992)]. All analyses were done using the 488-nm excitation from an krypton/argon laser with a 635-nm band pass filter for PI emission. The percentage of sperm positive for PI staining were determined using cutoff signals for membrane-intact motile sperm.
Ethanol permeabilized and air-dried sperm smears were stained sequentially with the three fluorescent markers, FITC-Pisum sativum, TOTO-3 iodide, and Nile red, each marking a different target (acrosome, nucleus, and plasma membrane of permeabilized sperm respectively). Samples were examined under a BioRad MRC-1024 Laser Scanning Confocal Microscope (BioRad Laboratories, Hercules, Calif.) equipped with a krypton/argon mixed gas laser (excitation lines 488, 568, and 647 nm) and mounted on a Nikon Eclipse E800 series upright microscope. The fluorescence emission of fluorescein, TOTO-3 iodide, and Nile red from the acrosomal region, nucleus, and the plasma membrane of sperm after ethanol permeabilization were simultaneously detected using the 598/40 nm, 522 DF32, and 680 DF32 emission/filter respectively. Confocal images were obtained using a Nikon 60× (NA 1.35) objective lens and Kalman collection filter. Digitized images were processed with the Adobe Photoshop software (Adobe Systems, Mountain View, Calif.). Final images were printed using a Fujix Pictography 3000 (Fuji Photo Film Co., Tokyo, Japan) color printer.
High-resolution low-voltage scanning electron microscopy was utilized for topographical imaging of different membrane domains over the sperm head as described [M. H. Stoffel et al. Molecular. Reprod. Develop. 34, 175 (1993); S. L. Erlandsen et al. Scanning 11, 169 (1989)]. […] Washed sperm suspensions were placed on 0.1% poly-L-lysine-coated glass chips and allowed to adhere to the glass over a 60 minute incubation period on ice. The supernatants were decanted, and adherent cells were fixed in 1% paraformaldehyde and 1% glutaraldehyde in 0.14 M sodium cacodylate buffer for 3 hours. To preserve plasma membrane integrity, sperm were post-fixed in 1% osmium tetroxide (OSO4) containing 0.1% ruthenium red in 0.14 M cacodylate buffer for 1 hour at 4° C. All samples were dehydrated through an ascending ethanol series, critical point dried, and coated with approximately 2 nm of platinum using ion beam sputtering with argon (4 mA at 10 ke V; Ion Tech Ltd., Middlesex, England). All samples were examined in a Hitachi S-900 SEM at an accelerating voltage of 2 keV. Sperm were observed under low magnification (×2,000-5000) and representative sperm were photographed under intermediate magnification (×18,000-25,000). In each specimen evaluated, at least 200 sperm were scanned for the intactness of sperm acrosomal region.
For transmission electron microscopy, treated sperm were fixed in 3% glutaraldehyde in 5% sucrose in 0.2 M cacodylate buffer for 3 hours at room temperature. The samples were post-fixed in 1% OSO4, 5% sucrose and 0.1% ruthenium red for 2 hours at 4° C. The samples were dehydrated in ascending ethanol series, and embedded in Spurr's epoxy. Thin sections (90 nm) were prepared on a Reichert-Jung Ultracut E and stained with uranyl acetate and lead citrate.

[3] = MTT, mean ± SD of two experiments
[4] = Homo sapiens, Epithelial cell, MTT, mean ± SD of two experiments

| Compound | IC50 [1, 3] [µM] | IC50 [2, 3] [µM] | sperm head topography by scanning electron microscopy (sperm acrosome) | acrosome status by confocal microscopy (FITC-lectin) (sperm acrosome) | sperm head membranes by transmission electron microscopy (sperm acrosome) | acrosome-intact sperm (sperm acrosome) | IC50 [1, 4] [µM] | IC50 [2, 4] [µM] | IC50 ([1]; Homo sapiens, Epithelial cell) [µM] | IC50 ([2]; Homo sapiens, Epithelial cell) [µM] |
| --- | --- | --- | --- | --- | --- | --- | --- | --- | --- | --- |
| 5-Bromo-6-methoxy-5,6-dihydro-3′-azidothymidine 5′-[Phenyl methoxyalaninyl phosphate] [WHI-04] | > 1000 | > 1000 | – | – | – | – | – | – | – | – |
| 5-Bromo-6-methoxy-5,6-dihydro-3′-azidothymidine-5′-[(p-Fluorophenyl methoxyalaninyl phosphate] [WHI-06] | 939 ± 157 | 304 ± 79 | – | – | – | – | – | – | – | – |
| 5-bromo-6-methoxy-5,6-dihydro-3 ′-azidothymidine-5 ′-(p-methoxyphenyl) methoxyalaninyl phosphate [WHI-05] | 388 ± 38 | > 1000 | intact acrosomes | uniform, bright green fluorescence | intactness of the plasma membrane, outer, and inner acrosomal membranes | 97.0±2.0 | – | – | – | – |
| CCCCCCCCCc1ccc(OCCOCCOCCOCCOCCOCCOCCOCCOCCO)cc1 [Compound N-9, nonoxynol-9, reference compound] | – | – | – | only acrosome-reacted sperm | – | – | 16 ± 5 | 22 ± 8 | – | – |
| COC(=O)C(C)NP(=O)(OCC1OC(N2C(=O)NC(=O)C(C)(Br)C2OC)CC1N=[N+]=[N-])Oc1ccc(Br)cc1 (stereo not shown) [WHI-07, 5-Bromo-6-methoxy-5,6-dihydro-3′-azidothymidine-5′-(p-Bromophenyl Methoxyalaninyl Phosphate)] | – | – | mild acrosomal membrane ruffling | uniform, bright green fluorescence | intactness of the plasma membrane, outer, and inner acrosomal membranes | 93.0±5.6 | – | – | 312 ± 38 | > 1000 |

From patent US6482805B2 (Parker Hughes Institute, priority 1998, dated 2002)
